Structures can show the parent of a compound that is named as a salt.
How the values were obtained:
K562 cells = test: K562 cell proliferation assay (CellTiter-Glo); format: cell-based; conditions: Homo sapiens, K562 cell viability, 72 hours, read-out: Cell Line (IC50, nM) K562
Experimental: (§1) K562 and HL60 Cell Proliferation Assay
(§2) K562 and HL60 cells, cultured in Iscove's Modified Dulbecco's Media (IMDM) supplemented with 10% FBS, were harvested at 50-80% confluency and plated at 2,000 cells per well (K562) or 1,500 cells per well (HL60) in 384-well tissue culture plates. A subset of wells contained media only (low control, LC). […] The plates were placed in a 37° C. incubator with 5% CO2 for 72 hours. Cell viability was measured using a CellTiter-Glo luminescent cell viability assay (Promega), which allows for relative quantification of metabolically active cells by luminescence-based measurements of intracellular ATP concentrations. Briefly, plates were removed from the incubator and equilibrated for 15 minutes at room temperature prior to the addition of 40 μL of CellTiter-Glo reagent. Plates were then incubated for 30 minutes at room temperature. Luminescence was measured using an EnSpire plate reader (Perkin Elmer). As noted above, luminescence values from wells with DMSO only or media without cells were used as high and low controls (HC and LC), respectively. Normalized percent viability was calculated as follows: percent viability=100×(Lumsample−LumLC)/(LumHC−LumLC).

HL60 cells = test: HL60 cell proliferation assay (CellTiter-Glo); format: cell-based; conditions: Homo sapiens, HL-60, HL60 cell viability, 72 hours, read-out: Cell Line (IC50, nM) HL60
Experimental: as §1, §2

ABL1 = molecular target: T1, ABL1 (Homo sapiens, UniProt P00519); test: Luminescence-based ABL kinase assay (300 μM ATP), ADP-Glo; format: biochemical
T1 construct: purchased Carna Biosciences
Text: Compounds were serially diluted in DMSO. […] Luminescence signal positively correlates with kinase activity.

ABL1 (T315I) = ABL1 (T315I) (Homo sapiens, UniProt P00519, T315I); test: as above; format: biochemical
Experimental: Kinase activity of ABL1 was measured using the ADP-Glo system (Promega), which measures formation of ADP using a luminescence-based method. Compounds were serially diluted in DMSO. 20 nL of compound or DMSO only (high control, HC) were added to a 384-well plate (OptiPlate-384. PerkinElmer) using an Echo550 liquid handler (Labcyte). 15 μL of kinase solution (10 mM MgCl2, 0.01% Brij-35, 2 mM DTT, 0.05% BSA, 1 mM EGTA, 50 mM HEPES pH 7.5, and 3.325 nM ABL1 [Carna Biosciences]) were added to each well of the 384-well plate containing the compounds. No enzyme control wells were included (low control, LC). The plate was incubated at room temperature for 30 minutes. 5 μL of a second solution containing 10 mM MgCl2, 0.01% Brij-35, 2 mM DTT, 0.05% BSA, 1 mM EGTA, 50 mM HEPES pH 7.5, 6 μM Peptide 2 (Perkin Elmer, Cat No 760346), and 1.2 mM ATP were added to each well to start the kinase reaction. The plate was incubated for 90 minutes at room temperature. 20 μL of ADP-Glo reagent (Promega) were then added to each well and the plate was incubated for 40 minutes at room temperature. 40 μL of kinase detection reagent (Promega) was added to each well and the plate was incubated for an additional 45 minutes at room temperature. During this step, ADP was converted to ATP, a substrate for luciferase, to produce luminescence signal. Luminescence was measured on an Envision plate reader (Perkin Elmer). Luminescence signal positively correlates with kinase activity. The percent kinase activity was calculated as follows: percent kinase activity=100×(Lumsample−LumLC)/(LumHC−LumLC). As noted above, DMSO only and no enzyme wells were used as high and low controls, respectively. IC50 values were calculated using the XLFit software.

SMILES	IC50 (K562 cells)	IC50 (HL60 cells)	IC50 (ABL1)	IC50 (ABL1 (T315I))
COc1cccc(C)c1-c1cc2cc(NC(=O)[C@@H]3C[C@@H]3F)ncc2n1C [Compound 25, (1S,2S)-2-fluoro-N-[2-(2-methoxy-6-methylphenyl)-1-methylpyrrolo[2,3-c]pyridin-5-yl]cyclopropane-1-carboxamide]	91.7 nM	523 nM	10.9 nM	10.8 nM
COc1cc2[nH]cnc2cc1-c1cc2cc(NC(=O)[C@@H]3C[C@@H]3F)ncc2n1C [Compound 28, (1S,2S)-2-fluoro-N-(2-(6-methoxy-1H-benzo[d]imidazol-5-yl)-1-methyl-1H-pyrrolo[2,3-c]pyridin-5-yl)cyclopropanecarboxamide formate]	30.4 nM	233 nM	9.95 nM	19.8 nM
COc1c(-c2cc3cc(NC(=O)[C@@H]4C[C@@H]4F)ncc3n2C)ccc2[nH]cnc12 [Compound 29, (1S,2S)-2-fluoro-N-[2-(4-methoxy-1H-1,3-benzodiazol-5-yl)-1-methylpyrrolo[2,3-c]pyridin-5-yl]cyclopropane-1-carboxamide]	258 nM	800 nM	52 nM	22.2 nM
COc1c(-c2cc3cc(NC(=O)[C@@H]4C[C@@H]4F)ncc3n2C)ccc2cn[nH]c12 [Compound 30, (1S,2S)-2-fluoro-N-(2-(7-methoxy-1H-indazol-6-yl)-1-methyl-1H-pyrrolo[2,3-c]pyridin-5-yl)cyclopropane-1-carboxamide]	245 nM	320 nM	119 nM	139 nM
COc1ncccc1-c1cc2cc(NC(=O)[C@H]3C[C@H]3F)ncc2n1C [Compound 34, (1R,2R)-2-fluoro-N-[2-(2-methoxypyridin-3-yl)-1-methylpyrrolo[2,3-c]pyridin-5-yl]cyclopropane-1-carboxamide]	208 nM	3840 nM	40.8 nM	124 nM
CCOc1ncccc1-c1cc2cc(NC(=O)[C@@H]3C[C@@H]3F)ncc2n1C [Compound 36, (1S,2S)-N-[2-(2-ethoxypyridin-3-yl)-1-methylpyrrolo[2,3-c]pyridin-5-yl]-2-fluorocyclopropane-1-carboxamide]	105 nM	3630 nM	6.33 nM	308 nM
COc1ccccc1-c1c(C)c2cc(NC(=O)[C@@H]3C[C@@H]3F)ncc2n1C [Compound 43, (1S,2S)-2-fluoro-N-(2-(2-methoxyphenyl)-1,3-dimethyl-1H-pyrrolo[2,3-c]pyridin-5-yl)cyclopropane-1-carboxamide]	317 nM	> 10000 nM	50.2 nM	24.7 nM
COc1ccccc1-c1c(C)c2cc(NC(=O)[C@H]3C[C@H]3F)ncc2n1C [Compound 44, (1R,2R)-2-fluoro-N-[2-(2-methoxyphenyl)-1,3-dimethylpyrrolo[2,3-c]pyridin-5-yl]cyclopropane-1-carboxamide]	368 nM	> 10000 nM	74.5 nM	36 nM
COc1ccccc1-c1c(C#N)c2cc(NC(=O)C3CC3)ncc2n1C [Compound 47, N-[3-cyano-2-(2-methoxyphenyl)-1-methylpyrrolo[2,3-c]pyridin-5-yl]cyclopropanecarboxamide]	1360 nM	> 10000 nM	244 nM	548 nM
COc1ccccc1-c1[nH]c2cc(NC(=O)[C@@H]3C[C@@H]3F)ncc2c1C [Compound 48, (1S,2S)-2-fluoro-N-[2-(2-methoxyphenyl)-3-methyl-1H-pyrrolo[3,2-c]pyridin-6-yl]cyclopropane-1-carboxamide]	85.8 nM	808 nM	31.7 nM	4.48 nM
COc1ncccc1-c1c(C)c2cnc(NC(=O)[C@@H]3C[C@@H]3F)cc2n1C [Compound 56, (1S,2S)-2-fluoro-N-[2-(2-methoxypyridin-3-yl)-1,3-dimethylpyrrolo[3,2-c]pyridin-6-yl]cyclopropane-1-carboxamide]	240 nM	6200 nM	198 nM	141 nM
COc1ncc(F)cc1-c1c(C)c2cnc(NC(=O)[C@@H]3C[C@@H]3F)cc2n1C [Compound 57, (1S,2S)-2-fluoro-N-(2-(5-fluoro-2-methoxypyridin-3-yl)-1,3-dimethyl-1H-pyrrolo[3,2-c]pyridin-6-yl)cyclopropane-1-carboxamide]	128 nM	4270 nM	111 nM	83.7 nM
COc1nccc(C)c1-c1cc2cc(NC(=O)[C@@H]3C[C@@H]3F)ncc2n1C [Compound 59, (1S,2S)-2-fluoro-N-[2-(2-methoxy-4-methylpyridin-3-yl)-1-methylpyrrolo[2,3-c]pyridin-5-yl]cyclopropane-1-carboxamide]	120 nM	1460 nM	40.2 nM	40.7 nM
COc1ncc(F)cc1-c1c(C)c2cc(NC(=O)[C@@H]3C[C@@H]3F)ncc2n1C [Compound 60, (1S,2S)-2-fluoro-N-[2-(5-fluoro-2-methoxypyridin-3-yl)-1,3-dimethylpyrrolo[2,3-c]pyridin-5-yl]cyclopropane-1-carboxamide]	718 nM	6490 nM	191 nM	193 nM
COc1ncccc1-c1c(C)c2cc(NC(=O)[C@@H]3C[C@@H]3F)ncc2n1C [Compound 61, (1S,2S)-2-fluoro-N-(2-(2-methoxypyridin-3-yl)-1,3-dimethyl-1H-pyrrolo[2,3-c]pyridin-5-yl)cyclopropanecarboxamide]	576 nM	4860 nM	207 nM	308 nM
[2H]C([2H])([2H])n1c(-c2cccnc2OC)cc2cc(NC(=O)[C@@H]3C[C@@H]3F)ncc21 [Compound 64, (1S,2S)-2-fluoro-N-(2-(2-methoxypyridin-3-yl)-1-(methyl-d3)-1H-pyrrolo[2,3-c]pyridin-5-yl)cyclopropane-1-carboxamide]	139 nM	1610 nM	32.5 nM	47.8 nM
[2H]C([2H])([2H])n1c(-c2cc(F)cnc2OC)cc2cc(NC(=O)[C@@H]3C[C@@H]3F)ncc21 [Compound 65, (1S,2S)-2-fluoro-N-(2-(5-fluoro-2-methoxypyridin-3-yl)-1-(methyl-d3)-1H-pyrrolo[2,3-c]pyridin-5-yl)cyclopropane-1-carboxamide]	217 nM	> 10000 nM	49.2 nM	47.6 nM
COc1ncc(Cl)cc1-c1cc2cc(NC(=O)[C@@H]3C[C@@H]3F)ncc2n1C [Compound 66, (1S,2S)-N-[2-(5-chloro-2-methoxypyridin-3-yl)-1-methylpyrrolo[2,3-c]pyridin-5-yl]-2-fluorocyclopropane-1-carboxamide]	100 nM	1750 nM	25.4 nM	68 nM
COc1ncc(C#N)cc1-c1cc2cc(NC(=O)[C@@H]3C[C@@H]3F)ncc2n1C [Compound 67, (1S,2S)-N-[2-(5-cyano-2-methoxypyridin-3-yl)-1-methylpyrrolo[2,3-c]pyridin-5-yl]-2-fluorocyclopropane-1-carboxamide]	207 nM	5280 nM	126 nM	513 nM
COc1cc2scnc2cc1-c1cc2cc(NC(=O)[C@@H]3C[C@@H]3F)ncc2n1C [Compound 70, (1S,2S)-2-fluoro-N-[2-(6-methoxy-1,3-benzothiazol-5-yl)-1-methylpyrrolo[2,3-c]pyridin-5-yl]cyclopropane-1-carboxamide]	193 nM	1030 nM	87.4 nM	316 nM
Cn1c(-c2cccc3[nH]cnc23)cc2cc(NC(=O)[C@@H]3C[C@@H]3F)ncc21 [Compound 73, (1S,2S)-N-[2-(1H-1,3-benzodiazol-4-yl)-1-methylpyrrolo[2,3-c]pyridin-5-yl]-2-fluorocyclopropane-1-carboxamide]	3710 nM	> 10000 nM	519 nM	315 nM
COc1cc2[nH]ncc2cc1-c1cc2cc(NC(=O)[C@@H]3C[C@@H]3F)ncc2n1C [Compound 74, (1S,2S)-2-fluoro-N-[2-(6-methoxy-1H-indazol-5-yl)-1-methylpyrrolo[2,3-c]pyridin-5-yl]cyclopropane-1-carboxamide]	44.7 nM	59.6 nM	19.6 nM	30.2 nM
COc1ccccc1-c1cc2cc(NC(=O)NCCN3CCOCC3)ncc2n1C [Compound 80, 1-(2-(2-methoxyphenyl)-1-methyl-1H-pyrrolo[2,3-c]pyridin-5-yl)-3-(2-morpholinoethyl)urea]	1610 nM	> 10000 nM	155 nM	193 nM
COc1cccc(OC)c1-c1cc2cc(NC(=O)NCCN3CCNCC3)ncc2n1C [Compound 81, 3-[2-(2,6-dimethoxyphenyl)-1-methylpyrrolo[2,3-c]pyridin-5-yl]-1-[2-(piperazin-1-yl)ethyl]urea]	40.4 nM	> 10000 nM	17.2 nM	23.5 nM

Source: patent US12240846B2 (Enliven Inc., priority 2020, dated 2025)
